Source: patent US10493153B2, “Alkylated photoremovable protecting groups and uses thereof” (Iowa State University Research Foundation, Inc., priority 2018, dated 2019)

Assays:
Assay type in all cases: physicochemical
[1] = UV-Vis absorption spectroscopy (absorption maximum, extinction coefficient); settings: for λmax: absorption maximum, UV-vis; for ε (extinction coefficient): determined by UV-Vis spectroscopy, in M-1cm-1 (unit assumed)
Excerpt: (§1) All manipulation with photosensitive samples were accomplished under the red light (λ>600 nm). In the spectroscopy measurements, the lowest possible intensity of incident light was used; the spectroscopic identity of the samples was confirmed after each measurement to ensure that no unwanted photodegradation processes occurred. All measurements were accomplished using fresh solutions prepared in the dark. ^1H and ^13C NMR spectra were obtained in CDCl3 on 101, 125, 400 and 500 MHz spectrometers. ^1H chemical shifts are reported in ppm relative to the tetramethylsilane signal (TMS, δ=0.00 ppm), using the residual solvent signal as an internal reference. ^13C NMR chemical shifts are reported in ppm relative to the CDCl3 signal as an internal standard. IR spectra were recorded on an FTIR spectrophotometer. Mass spectra (MS) and high resolution mass spectra (HRMS) were recorded using an ESI and APCI techniques. Absorption spectra and the molar absorption coefficients were obtained on a UV-vis spectrometer with matched 1.0-cm quartz cells. […] A nanosecond flash lamp (filled with H2) was used to determine the fluorescence lifetimes. The data obtained were deconvolved from the measured decay curves of the sample and the instrumental response function. The quantum yields of fluorescence were obtained using a calibrated integration sphere.
(§2) The observed substrate release rate as a function of photolysis time is quantified by the quantum efficiency parameter (εϕ), which is the product of the extinction coefficient at the irradiation wavelength (E) and the quantum yield (ϕ). Extinction coefficients for compounds 1-7 were determined by UV-Vis spectroscopy (see Table 1).

[2] = Fluorescence emission spectroscopy; settings: emission maximum
Excerpt: as §1

[3] = Quantum yield and quantum efficiency of photorelease on irradiation; settings: for εΦ (quantum efficiency): product of extinction coefficient and quantum yield; for Φ (quantum yield): solutions in methanol, λirr 365, 490, 507 nm
Method: A solution of the given compound (3.0 mL) in a matched 1.0 cm quartz PTFE screw-cap fluorescence cuvette equipped with a stir bar was irradiated with a light source (32 LEDs emitting at the selected wavelength: λmax=365, 490, 507 nm; the bandwidths at half height=30 nm; high-pressure 450 W mercury-xenon arc lamp with a monochromator with 200-1600 nm grating set to 365±0.5 nm). The reaction progress was monitored by UV-vis spectrometry using a diode-array spectrophotometer in a kinetic mode.
Photodegradation quantum yields for both aerated and degassed (freeze-pump-thaw technique; 3 cycles) solutions in methanol were determined at λirr=365 (LEDs and mercury-xenon arc lamp), 490 nm (LEDs), and 507 nm (LEDs) with xanthene-9-carboxylic acidl and BODIPY-CORM2 as actinometers; most values were cross-checked using ferrioxalate3 at λirr=365 nm. The data were processed using single value decomposition (SVD) software assuming the first-order rate law. The amount of absorbed light was calculated from the whole emission spectrum of the light source. […] All quantum yield measurements were repeated at least 6 times with independently prepared samples.
as §2

Row | Molecule | λmax [1] | ε (extinction coefficient) [1] | λem [2] | εΦ (quantum efficiency) [3] | Φ (quantum yield) [3]
1 | CC1=C(I)C(C)=[N+]2C1=C(COC(=O)Cc1ccccc1)c1c(C)c(I)c(C)n1[B-]2(C)C [Compound 6, 2,6-Diiodo-4,4′-dimethyl-8-methyl-(2-phenylacetate)-1,3,5,7-tetramethyl-4-bora-3a,4a-diaza-s-indacene] | 538 nm | 60,700 | 572 nm | 16,996 M^−1cm^−1 | 0.28
2 | CC1=CC(C)=[N+]2C1=C(COC(=O)Cc1ccccc1)c1c(C)cc(C)n1[B-]2(C)C [Compound 2, 4,4′-Dimethyl-8-methyl(2-phenylacetate)-1,3,5,7-tetramethyl-4-bora-3a,4a-diaza-s-indacene] | 512 nm | 68,500 | 550 nm | 7,398 M^−1cm^−1 | 0.11
3 | 2,6-Diiodo-4,4′-dimethyl-8-chloro ethyl-1,3,5,7-tetramethyl-4-bora-3a,4a-diaza-s-indacene [Compound 5] | 542 nm | 62,400 | 573 nm | 59,280 M^−1cm^−1 | 0.95
4 | CC1=CC(C)=[N+]2C1=C(CCl)c1c(C)cc(C)n1[B-]2(C)C [Compound 1, 4,4′-Dimethyl-8-chloromethyl-1,3,5,7-tetramethyl-4-bora-3a,4a-diaza-s-indacene] | 519 nm | 60,580 | 556 nm | 41,194 M^−1cm^−1 | 0.68
5 | CC1=CC(C)=[N+]2C1=C(COC(=O)Cc1ccccc1)c1c(C)cc(C)n1[B-]2(c1ccccc1)c1ccccc1 [Compound 4, 4,4′-Diphenyl-8-methyl-(2-phenylacetate)-1,3,5,7-tetramethyl-4-bora-3a,4a-diaza-s-indacene] | 517 nm | 58,300 | 562 nm | 583 M⁻¹ cm⁻¹ | 0.01
6 | CC[B-]1(CC)n2c(C)cc(C)c2C(COC(=O)Cc2ccccc2)=C2C(C)=CC(C)=[N+]21 [Compound 3, 4,4′-Diethyl-8-methyl-(2-phenylacetate)-1,3,5,7-tetramethyl-4-bora-3a,4a-diaza-s-indacene] | 513 nm | 55,300 | 550 nm | 4,424 M^−1cm^−1 | 0.08
